Data from patent publication US20220323446A1 (Amgen Inc., priority 2021, published 2022).

Legend:
[1] = Phase 1 interaction study, sotorasib with omeprazole, fasted conditions; format: in vivo, human
[2] = test system: NSCLC adenocarcinoma (stage IV); test: Dose comparison study, tumor response (RECIST 1.1) at 240 mg once daily; format: in vivo, human
Method: The extent of disease is evaluated by contrast-enhanced MRI/CT according to RECIST 1.1, as described below. In order to reduce radiation exposure for subjects, low dose CT should be utilized whenever possible.

CYP3A4 = CYP3A4 (Homo sapiens, UniProt P08684); test: Phase 1 interaction study, sotorasib with multiple doses of rifampin (strong CYP3A4 inducer); format: in vivo; design: from tissue; host or cells: in vivo, healthy human subjects (liver or gut enzyme)
Sequence of CYP3A4 (P08684 whole entry): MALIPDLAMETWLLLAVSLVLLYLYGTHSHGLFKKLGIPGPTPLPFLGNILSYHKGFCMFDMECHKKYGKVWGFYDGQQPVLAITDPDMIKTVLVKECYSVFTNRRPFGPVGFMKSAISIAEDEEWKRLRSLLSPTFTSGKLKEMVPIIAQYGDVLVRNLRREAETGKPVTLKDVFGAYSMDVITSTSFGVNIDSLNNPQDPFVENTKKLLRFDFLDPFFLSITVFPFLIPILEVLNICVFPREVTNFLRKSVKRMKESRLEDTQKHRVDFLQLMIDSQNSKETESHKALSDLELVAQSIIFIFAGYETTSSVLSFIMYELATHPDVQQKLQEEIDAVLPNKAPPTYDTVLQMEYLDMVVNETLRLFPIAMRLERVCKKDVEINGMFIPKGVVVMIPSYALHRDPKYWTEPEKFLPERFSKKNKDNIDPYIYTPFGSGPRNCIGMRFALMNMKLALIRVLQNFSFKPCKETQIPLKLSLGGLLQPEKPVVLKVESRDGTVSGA

[3] = Phase 1 interaction study, sotorasib with famotidine or omeprazole, fed conditions; format: in vivo, human
Method: Safety and tolerability monitoring was performed throughout the study.

[4] = Sotorasib dose reduction and discontinuation (safety analysis set); details: for Discontinuation reason: Adverse event / Discontinuation reason: Death / Discontinuation reason: Disease progression / Subjects who discontinued sotorasib: subjects with any dose reduction;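 as to all read-outs here: counts of patients in the safety analysis set, where lowering the dose was allowed upon certain adverse events such as hepatotoxicity, nausea or vomiting and diarrhea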
[5] = test system: phosphorylation of extracellular signal-regulated kinase (ERK); details: preclinical studies; cited from earlier work
[6] = Dose comparison study 960 mg QD vs 240 mg QD, pharmacokinetics; details: for AUC0-24h: GeoMean
clinical = details: human, in vivo, oral
OATP1B1 = molecular target: T1, OATP1B1 (Homo sapiens, UniProt Q9Y6L6); test: Phase 1 interaction study, sotorasib with single dose of rifampin; format: in vivo
T1 construct: from tissue
T1 sequence (Q9Y6L6 1-691): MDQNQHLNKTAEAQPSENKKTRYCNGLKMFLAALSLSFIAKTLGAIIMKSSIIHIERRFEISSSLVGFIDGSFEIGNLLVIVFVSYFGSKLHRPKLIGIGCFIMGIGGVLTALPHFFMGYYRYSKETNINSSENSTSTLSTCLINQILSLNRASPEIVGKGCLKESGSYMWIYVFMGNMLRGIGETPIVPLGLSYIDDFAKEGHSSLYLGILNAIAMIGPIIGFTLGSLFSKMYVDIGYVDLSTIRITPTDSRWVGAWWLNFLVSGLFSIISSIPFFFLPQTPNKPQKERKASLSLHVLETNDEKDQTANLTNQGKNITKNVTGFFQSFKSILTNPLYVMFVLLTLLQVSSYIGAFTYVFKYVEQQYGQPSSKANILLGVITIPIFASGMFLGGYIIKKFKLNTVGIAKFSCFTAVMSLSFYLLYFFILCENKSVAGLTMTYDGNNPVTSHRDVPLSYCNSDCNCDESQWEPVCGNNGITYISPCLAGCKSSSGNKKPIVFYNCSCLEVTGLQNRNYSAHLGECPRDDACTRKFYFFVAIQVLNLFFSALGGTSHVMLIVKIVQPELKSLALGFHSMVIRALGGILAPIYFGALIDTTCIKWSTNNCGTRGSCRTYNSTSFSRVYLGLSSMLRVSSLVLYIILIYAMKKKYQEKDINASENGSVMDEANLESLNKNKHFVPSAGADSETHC

[7] = Common adverse events during Phase 2 Study; format: in vivo, human
[8] = with omeprazole vs sotorasib alone, fasted state
[9] = famotidine 10 hours prior to and 2 hours after sotorasib
[10] = 427 subjects, sotorasib monotherapy, any tumor type and any dose
[11] = Any tumor types 180 mg QD fasted (n = 6)
[12] = Any tumor types 360 mg QD fasted (n = 27)
[13] = Any tumor types 480 mg BID fed (n = 26)
[14] = Any tumor types 720 mg QD fasted (n = 11)
[15] = Any tumor types 960 mg QD fasted (n = 339)
[16] = Any tumor types 960 mg QD fed (n = 18)
[17] = Total any tumor types and any dose (n = 427)
[18] = of the 56 subjects who had a dose reduction
[19] = Total any tumor types and any dose (N = 56)

C=CC(=O)N1CCN(c2nc(=O)n(-c3c(C)ccnc3C(C)C)c3nc(-c4c(O)cccc4F)c(F)cc23)[C@@H](C)C1 (atropisomer, axis not shown; (M)) [sotorasib, 6-fluoro-7-(2-fluoro-6-hydroxyphenyl)-(1M)-1-[4-methyl-2-(propan-2-yl)pyridin-3-yl]-4-[(2S)-2-methyl-4-(prop-2-enoyl)piperazin-1-yl]pyrido[2,3-d]pyrimidin-2(1H)-one]
sotorasib time to maximal plasma concentration (Lx) delayed by ([1]; 960 mg sotorasib with 40 mg omeprazole vs alone, fasted, healthy subjects): 0.75 h | Mean terminal half-life (ty2) of sotorasib with omeprazole compared to alone ([1]; 960 mg sotorasib, 40 mg omeprazole, fasted): similar | safety and tolerability ([1]; coadministered with 40 mg omeprazole or alone, healthy subjects): safe and well tolerated | AUC(0-inf) ([1]; human, plasma, 960 mg): 29300 ng·h/mL | decrease of sotorasib AUCinf [1, 8]: 42% | decrease of sotorasib Cmax [1, 8]: 57% | tumor response ([2]; one patient, after cycle 3 and 5): stable disease (SD) | tumor response ([2]; other patient, after cycle 9): progression disease (PD) | tumor response ([2]; other patient, after cycles 3, 5, and 7): partial response (PR) | tumor response ([2]; same patient, after cycles 7 and 9): partial response (PR) | Geometric mean sotorasib AUOnf (CYP3A4; 960 mg sotorasib with multiple doses of rifampin 600 mg): 12400 ng·h/mL | safety and tolerability (CYP3A4; coadministered with 600 mg rifampin or alone, healthy subjects): safe and well tolerated | CYP3A4 substrate status (CYP3A4; concluded from multiple doses of rifampin): is a CYP3A4 substrate | AUC(0-inf) (CYP3A4; human, plasma, 960 mg): 25600 ng·h/mL | Cmax (CYP3A4; human, plasma, 960 mg): 6350 ng/mL | decrease of sotorasib AUOnf (CYP3A4; multiple doses of rifampin): 51% | decrease of sotorasib Cmax (CYP3A4; multiple doses of rifampin): 35% | safety and tolerability ([3]; 960 mg with 40 mg famotidine single dose or 40 mg omeprazole multiple daily dosing, healthy subjects): safe and well tolerated | decrease of sotorasib AUC [3, 9]: 38% | decrease of sotorasib Cmax [3, 9]: 35% | decrease of sotorasib AUC ([3]; repeat doses of omeprazole): 57% | decrease of sotorasib Cmax ([3]; repeat doses of omeprazole): 65% | subjects with a dose reduction [4, 10]: 13.1% | subjects with dose reduction due to adverse events (AEs) [4, 10]: 10.8% | Number of subjects with any dose reduction [4, 11]: 0 (0.0) n (%) | Primary reason for dose reduction: Adverse event [4, 11]: 0 (0.0) n (%) | Number of subjects with any dose reduction [4, 12]: 3 (11.1) n (%) | Primary reason for dose reduction: Adverse event [4, 12]: 3 (11.1) n (%) | Number of subjects with any dose reduction [4, 13]: 3 (11.5) n (%) | Primary reason for dose reduction: Adverse event [4, 13]: 2 (7.7) n (%) | Number of subjects with any dose reduction [4, 14]: 2 (18.2) n (%) | Primary reason for dose reduction: Adverse event [4, 14]: 1 (9.1) n (%) | Number of subjects with any dose reduction [4, 15]: 36 (13.6) n (%) | Primary reason for dose reduction: Adverse event [4, 15]: 38 (11.2) n (%) | Number of subjects with any dose reduction [4, 16]: 2 (11.1) n (%) | Primary reason for dose reduction: Adverse event [4, 16]: 2 (11.1) n (%) | Number of subjects with any dose reduction [4, 17]: 56 (13.1) n (%) | Primary reason for dose reduction: Adverse event [4, 17]: 46 (10.8) n (%) | subjects who discontinued due to progression of disease [4, 18]: 44.6% | subjects who discontinued treatment with sotorasib [4, 18]: 69.6% | subjects whose reason to discontinue was due to AEs [4, 18]: 21.4% | Discontinuation reason: Adverse event ([4]; 180 mg QD fasted (N = 0)): 0 (0.0) n (%) | Discontinuation reason: Death ([4]; 180 mg QD fasted (N = 0)): 0 (0.0) n (%) | Discontinuation reason: Disease progression ([4]; 180 mg QD fasted (N = 0)): 0 (0.0) n (%) | Subjects who discontinued sotorasib ([4]; 180 mg QD fasted (N = 0)): 0 (−) n (%) | Discontinuation reason: Adverse event ([4]; 360 mg QD fasted (N = 3)): 0 (0.0) n (%) | Discontinuation reason: Death ([4]; 360 mg QD fasted (N = 3)): 0 (0.0) n (%) | Discontinuation reason: Disease progression ([4]; 360 mg QD fasted (N = 3)): 2 (66.7) n (%) | Subjects who discontinued sotorasib ([4]; 360 mg QD fasted (N = 3)): 2 (66.7) n (%) | Discontinuation reason: Adverse event ([4]; 480 mg BID fed (N = 3)): 2 (66.7) n (%) | Discontinuation reason: Death ([4]; 480 mg BID fed (N = 3)): 0 (0.0) n (%) | Discontinuation reason: Disease progression ([4]; 480 mg BID fed (N = 3)): 0 (0.0) n (%) | Subjects who discontinued sotorasib ([4]; 480 mg BID fed (N = 3)): 2 (66.7) n (%) | Discontinuation reason: Adverse event ([4]; 720 mg QD fasted (N = 2)): 0 (0.0) n (%) | Discontinuation reason: Death ([4]; 720 mg QD fasted (N = 2)): 0 (0.0) n (%) | Discontinuation reason: Disease progression ([4]; 720 mg QD fasted (N = 2)): 2 (100.0) n (%) | Subjects who discontinued sotorasib ([4]; 720 mg QD fasted (N = 2)): 2 (100.0) n (%) | Discontinuation reason: Adverse event ([4]; 960 mg QD fasted (N = 46)): 9 (19.6) n (%) | Discontinuation reason: Death ([4]; 960 mg QD fasted (N = 46)): 0 (0.0) n (%) | Discontinuation reason: Disease progression ([4]; 960 mg QD fasted (N = 46)): 21 (45.7) n (%) | Subjects who discontinued sotorasib ([4]; 960 mg QD fasted (N = 46)): 32 (69.6) n (%) | Discontinuation reason: Adverse event ([4]; 960 mg QD fed (N = 2)): 1 (50.0) n (%) | Discontinuation reason: Death ([4]; 960 mg QD fed (N = 2)): 0 (0.0) n (%) | Discontinuation reason: Disease progression ([4]; 960 mg QD fed (N = 2)): 0 (0.0) n (%) | Subjects who discontinued sotorasib ([4]; 960 mg QD fed (N = 2)): 1 (50.0 n (%) | Discontinuation reason: Adverse event [4, 19]: 12 (21.4) n (%) | Discontinuation reason: Death [4, 19]: 0 (0.0) n (%) | Discontinuation reason: Disease progression [4, 19]: 25 (44.6) n (%) | Subjects who discontinued sotorasib [4, 19]: 39 (69.6) n (%) | phosphorylation of ERK [5]: inhibited nearly all detectable phosphorylation | Tmax ([6]; 240 mg, Day 1, Median): 1.0 h | AUC0-24h ([6]; 240 mg, Day 8): 36.3 µg·h/mL | AUC0-24h ([6]; 960 mg, Day 1): 85 µg·h/mL | mean exposures (Cmax and AUC0-24h) following 960 mg compared to 240 mg ([6]; Day 1 and Day 8): numerically higher | Exposures on Day 8 lower than on Day 1 ([6]; both 240 mg and 960 dosing): 30-40% | Tmax (clinical; 240 mg): 4 h | Tmax (clinical; 960 mg): 4 h | OATP1B1 substrate status (OATP1B1; concluded from single dose rifampin): not a substrate of OATP1B1 | effect of single dose of rifampin on sotorasib PK (OATP1B1; single dose rifampin): did not have a clinically meaningful effect | Abdominal pain, ALL GRADES [7]: 15% | Abdominal pain, GRADE 3 TO 4 [7]: 1.0% | Arthalgia, ALL GRADES [7]: 12% | Arthalgia, GRADE 3 TO 4 [7]: 1.0% | Constipation, ALL GRADES [7]: 16% | Constipation, GRADE 3 TO 4 [7]: 0.5% | Cough, ALL GRADES [7]: 20% | Cough, GRADE 3 TO 4 [7]: 1.5% | Decreased appetite, ALL GRADES [7]: 13% | Decreased appetite, GRADE 3 TO 4 [7]: 1.0% | Diarrhea, ALL GRADES [7]: 42% | Diarrhea, GRADE 3 TO 4 [7]: 5% | Dyspnea, ALL GRADES [7]: 16% | Dyspnea, GRADE 3 TO 4 [7]: 2.9% | Fatigue, ALL GRADES [7]: 25% | Fatigue, GRADE 3 TO 4 [7]: 2.0% | Headache, ALL GRADES [7]: 10% | Headache, GRADE 3 TO 4 [7]: 0% | Hepatotoxicity, ALL GRADES [7]: 25% | Hepatotoxicity, GRADE 3 TO 4 [7]: 12% | Musculoskeletal pain, ALL GRADES [7]: 35% | Musculoskeletal pain, GRADE 3 TO 4 [7]: 2.0% | Nausea, ALL GRADES [7]: 26% | Nausea, GRADE 3 TO 4 [7]: 1.0% | Pneumonia, ALL GRADES [7]: 12% | Pneumonia, GRADE 3 TO 4 [7]: 7% | Rash, ALL GRADES [7]: 12% | Rash, GRADE 3 TO 4 [7]: 0% | Vomiting, ALL GRADES [7]: 17% | Vomiting, GRADE 3 TO 4 [7]: 1.5%
